The record followed here is patent publication US9126953B2, “Triazole compounds that modulate HSP90 activity” (Synta Pharmaceuticals Corp., priority 2008, dated 2015).

SMILES strings stand for the structures. pIC50: −log10 of the molar value. Bounds are passed on as bounds.

One experiment deals with MV-4-11 cells. As to the kind of experiment: Her2 degradation Method 2: MV-4-11 cell survival, Cell Counting Kit-8 (Table 2: inhibition of Hsp90). Format: cell-based. The conditions noted are these: Homo sapiens, MV4-11, 72 hours, cell survival by Cell Counting Kit-8, text calls it IC50 for Her2 degradation, read-out: IC50 range of compounds of the invention for inhibition of Hsp90, IC50. The method, then: MV-4-11 cells (20,000 cells/well) were cultured in 96-well plates and maintained at 37° C. for several hours. The cells were treated with a compound of the invention or 17AAG (a positive control) at various concentrations and incubated at 37° C. for 72 hours. Cell survival was measured with Cell Counting Kit-8 (Dojindo Laboratories, Cat. # CK04).
In general, pIC50 refers to −log10 of the IC50, conventionally taken in molar units. In the case of `NC(=O)c1nnc(-c2cc3c(cc2O)OCO3)n1-c1ccc(N2CCOCC2)cc1` [Compound 1, 5-(6-hydroxybenzo[d][1,3]-dioxol-5-yl)-4-(4-morpholinophenyl)-4H-1,2,4-triazole-3-carboxamide], the pIC50 was 4.30 to 4.70. Take `NC(=O)c1nnc(-c2cc3c(cc2O)OCCC3)n1-c1ccc2c(c1)OCO2` [Compound 2, 4-(benzo[d][1,3]dioxol-5-yl)-5-(7-hydroxychroman-6-yl)-4H-1,2,4-triazole-3-carboxamide]: the negative logarithm of the IC50 (pIC50) is no less than 5.00. Regarding `COc1ccc(-n2c(C(N)=O)nnc2-c2cc3c(cc2O)OCC3)cc1` [Compound 3, 5-(6-hydroxy-2,3-dihydrobenzofuran-5-yl)-4-(4-methoxyphenyl)-4H-1,2,4-triazole-3-carboxamide], the pIC50 was 4.30 to 4.70. The same measure, in the same setting: with `COc1ccc(-n2c(C(N)=O)nnc2-c2cc3c(cc2O)OCCC3)cc1` [Compound 4, 5-(7-hydroxychroman-6-yl)-4-(4-methoxyphenyl)-4H-1,2,4-triazole-3-carboxamide] the figure was less than 4.30. Still for that read-out and setting: the result for `COc1ccc(-n2c(C(N)=O)nnc2-c2cc3c(cc2O)CCC3)cc1` [Compound 5, 5-(6-hydroxy-2,3-dihydro-1H-inden-5-yl)-4-(4-methoxyphenyl)-4H-1,2,4-triazole-3-carboxamide] reads 4.70 to 5.00. On the same count and under the same terms, the result for `COc1ccc(-n2c(C(N)=O)nnc2-c2c(O)ccc3c2CCCC3)cc1` [Compound 6, 5-(2-hydroxy-5,6,7,8-tetrahydronaphthalen-1-yl)-4-(4-methoxyphenyl)-4H-1,2,4-triazole-3-carboxamide] reads 4.30 to 4.70. In the case of `COc1ccc(-n2c(C(N)=O)nnc2-c2c(O)ccc3ccccc23)cc1` [Compound 7, 5-(2-hydroxynaphthalen-1-yl)-4-(4-methoxyphenyl)-4H-1,2,4-triazole-3-carboxamide], the pIC50 was 4.30 to 4.70. The same measure, in the same setting: the result for `COc1ccc(-n2c(C(N)=O)nnc2-c2ccc3c(c2O)CCCC3)cc1` [Compound 8, 5-(1-hydroxy-5,6,7,8-tetrahydronaphthalen-2-yl)-4-(4-methoxyphenyl)-4H-1,2,4-triazole-3-carboxamide] reads less than 4.30.

Another experiment relates to Her2. As to the kind of experiment: Degradation of Her2 in BT-474 cells, Method 1 (Western blot). In kind it is cell-based, human. The conditions noted are these: 0.5 μM, overnight, positive control. The method, then: Human high-Her2 breast carcinoma BT474 (HTB-20), SK-BR-3 (HTB-30) and MCF-7 breast carcinoma (HTB-22) from American Type Culture Collection, VA, USA were grown in Dulbecco's modified Eagle's medium with 4 mM L-glutamine and antibiotics (100 IU/ml penicillin and 100 μg/ml streptomycine; GibcoBRL). To obtain exponential cell growth, cells were trypsinized, counted and seeded at a cell density of 0.5×10^6 cells/ml regularly, every 3 days. All experiments were performed on day 1 after cell passage.
BT-474 cells are treated with 0.5 μM, 2 μM, or 5 μM of 17AAG (a positive control) or 0.5 μM, 2 μM, or 5 μM of a compound of the invention overnight in DMEM medium. After treatment, each cytoplasmic sample is prepared from 1×10^6 cells by incubation of cell lysis buffer (#9803, Cell Signaling Technology) on ice for 10 minutes. The resulting supernatant used as the cytosol fractions is dissolved with sample buffer for SDS-PAGE and run on a SDS-PAGE gel, blotted onto a nitrocellulose membrane by using semi-dry transfer. Non-specific binding to nitrocellulose is blocked with 5% skim milk in TBS with 0.5% Tween at room temperature for 1 hour, then probed with anti-Her2/ErB2 mAb (rabbit IgG, #2242, Cell Signaling) and anti-Tubulin (T9026, Sigma) as housekeeping control protein. […]
Background: A western blot detects proteins with antibodies after separation by electrophoresis.
As to `C=CCNC1=C2C[C@@H](C)C[C@H](OC)[C@H](O)[C@@H](C)/C=C(\C)[C@H](OC(N)=O)[C@@H](OC)/C=C\C=C(/C)C(=O)NC(=CC1=O)C2=O` [Compound 17AAG, 17-allylamino-17-demethoxygeldanamycin], the “degradation of Her2” value is given as “partial degradation”.
